Data set [1] can be described thus: Concentrations of precipitation. In kind it is physicochemical. From the text:
Table 1 α-Glucosidase inhibitory activity of compounds 8a–t. | column: Concentrations of precipitation (µM)

Data set [2] has as its target Saccharomyces cerevisiae α-glucosidase enzyme (EC. 3. 2. 1. 20) (Saccharomyces cerevisiae, UniProt P38158). As to the kind of experiment: In vitro α-glucosidase inhibitory activity. In kind it is biochemical.
Description: In order to conduct the enzyme assay, the Saccharomyces cerevisiae α-glucosidase enzyme (EC. 3. 2. 1. 20) have been used.
Data set [3] has as its target α-glucosidase. More on the design: method as in PMID 36782003, PMID 35982225, PMID 36928433, PMID 37188744, doi:10.1039/C5MD00280J. Particulars: cited from earlier work.
For data set [4], the target named is α-glucosidase (Saccharomyces cerevisiae, UniProt P38158). As to the kind of experiment: Enzyme kinetic study (Lineweaver–Burk plot). It is filed as biochemical. The text has this:
A Lineweaver–Burk plot was generated to recognize the type of inhibition and the Michaelis–Menten constant (Km) value was defined from the plot between the reciprocal of the substrate concentration (1/[S]) and reciprocal of enzyme rate (1/V) over different concentrations of inhibitor.

By IC50 is commonly meant the point on the concentration scale where inhibition reaches its midpoint. The term melting point denotes the temperature, or range, at which the solid turns liquid. By Ki is commonly meant the equilibrium dissociation constant of an inhibitor or competing ligand from its target.

Where two headings read alike, the source gives them in different places.

Sequence of Saccharomyces cerevisiae α-glucosidase enzyme (EC. 3. 2. 1. 20) (P38158 whole entry): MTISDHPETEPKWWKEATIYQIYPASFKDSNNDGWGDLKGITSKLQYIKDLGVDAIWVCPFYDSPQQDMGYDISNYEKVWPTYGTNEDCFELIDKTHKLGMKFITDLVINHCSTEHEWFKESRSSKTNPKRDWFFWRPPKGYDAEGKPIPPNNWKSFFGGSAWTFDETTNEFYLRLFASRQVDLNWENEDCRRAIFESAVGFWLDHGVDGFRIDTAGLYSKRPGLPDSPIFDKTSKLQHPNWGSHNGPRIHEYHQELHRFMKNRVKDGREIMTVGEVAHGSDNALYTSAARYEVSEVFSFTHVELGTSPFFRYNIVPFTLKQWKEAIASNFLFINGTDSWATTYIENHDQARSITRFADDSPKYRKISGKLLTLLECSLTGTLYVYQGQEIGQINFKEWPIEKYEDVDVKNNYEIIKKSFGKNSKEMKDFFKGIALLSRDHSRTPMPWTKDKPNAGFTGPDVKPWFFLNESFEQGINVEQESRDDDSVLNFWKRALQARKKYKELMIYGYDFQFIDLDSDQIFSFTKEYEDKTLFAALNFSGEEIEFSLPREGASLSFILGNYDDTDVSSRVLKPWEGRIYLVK
Sequence of α-glucosidase (Saccharomyces cerevisiae, UniProt P38158) (P38158 whole entry): as above

For the compound “2-((3-(benzo[d]thiazol-2-yl)quinolin-2-yl)thio)-N-(4-methyl-2-nitrophenyl)acetamide [Compound 8n]”, the Concentrations of precipitation in data set [1] is greater than 90 µM. The half-maximal inhibitory concentration (IC50) in data set [2] (α-glucosidase, mean ± SD of three independent determinations of triplicate samples, read-out: IC50) was determined as 65.9 ± 1 µM.
On to `O=C(N/N=C/c1cc(O)c(O)cc1O)c1ccc(-c2nnc(-c3ccc4ncccc4c3)o2)cc1` [A], for which the IC50 at α-glucosidase [3] (Fig. 2, study of compound A with its acarbose standard) was 2.6 ± 0.01 µM.
For the compound `O=C(CSc1nc2ccccc2cc1-c1nc2ccccc2[nH]1)Nc1cccc(Cl)c1` [C], the half-inhibitory concentration (IC50) on α-glucosidase [3] (Fig. 2, study of compound C with its acarbose standard) is 3.2 ± 0.3 µM.
Regarding `O=C(CSc1nc2ccccc2cc1-c1nc2ccccc2s1)Nc1ccccc1` [Compound 8a, 2-((3-(benzo[d]thiazol-2-yl)quinolin-2-yl)thio)-N-phenylacetamide], the Concentrations of precipitation in data set [1] is given as greater than 90 µM. The IC50 in data set [2] was determined as 299 ± 0.1 µM.
For the compound `Cc1ccccc1NC(=O)CSc1nc2ccccc2cc1-c1nc2ccccc2s1` [Compound 8b, 2-((3-(benzo[d]thiazol-2-yl)quinolin-2-yl)thio)-N-(o-tolyl)acetamide], the melting point fell in the range of 211 to 213 °C. The compound also registered a Concentrations of precipitation in data set [1] greater than 90 µM. The compound also returned an IC50 in data set [2] of 79.9 ± 1.2 µM. In data set [2] (α-glucosidase, more potent than 8c), the “Potency compared to para-isomer (8c)” value is “fivefold”.
The compound `Cc1ccc(NC(=O)CSc2nc3ccccc3cc2-c2nc3ccccc3s2)cc1` [Compound 8c, 2-((3-(benzo[d]thiazol-2-yl)quinolin-2-yl)thio)-N-(p-tolyl)acetamide] showed a Concentrations of precipitation in data set [1] greater than 90 µM. Moreover, the midpoint of inhibition in data set [2], the IC50, lay at 384.3 ± 0.3 µM.
In the same order, the values of `CCc1ccc(NC(=O)CSc2nc3ccccc3cc2-c2nc3ccccc3s2)cc1` [Compound 8d, 2-((3-(benzo[d]thiazol-2-yl)quinolin-2-yl)thio)-N-(4-ethylphenyl)acetamide] are greater than 90 µM and 194.4 ± 0.8 µM.
In data set [1], `Cc1cccc(NC(=O)CSc2nc3ccccc3cc2-c2nc3ccccc3s2)c1C` [Compound 8e, 2-((3-(benzo[d]thiazol-2-yl)quinolin-2-yl)thio)-N-(2,3-dimethylphenyl)acetamide] displayed a Concentrations of precipitation greater than 90 µM. The half-inhibitory concentration (IC50) in data set [2] was 130.4 ± 0.5 µM.
In turn, `Cc1cccc(C)c1NC(=O)CSc1nc2ccccc2cc1-c1nc2ccccc2s1` [Compound 8f, 2-((3-(benzo[d]thiazol-2-yl)quinolin-2-yl)thio)-N-(2,6-dimethylphenyl)acetamide] gave a Concentrations of precipitation in data set [1] greater than 90 µM. Moreover, in data set [2], half-maximal inhibition (IC50) required 231.6 ± 0.7 µM.
In turn, `O=C(CSc1nc2ccccc2cc1-c1nc2ccccc2s1)Nc1ccccc1F` [Compound 8g, 2-((3-(benzo[d]thiazol-2-yl)quinolin-2-yl)thio)-N-(2-fluorophenyl)acetamide] displayed a melting point of 201 to 203 °C. Besides, in data set [1], the Concentrations of precipitation is listed as greater than 90 µM. Further, it took 198.5 ± 0.9 µM to reach half-maximal inhibition in data set [2] (IC50).
With `O=C(CSc1nc2ccccc2cc1-c1nc2ccccc2s1)Nc1ccc(F)cc1` [Compound 8h, 2-((3-(benzo[d]thiazol-2-yl)quinolin-2-yl)thio)-N-(4-fluorophenyl)acetamide], the Concentrations of precipitation in data set [1] is on record as greater than 90 µM. The Type of inhibition result on α-glucosidase [4] (Lineweaver–Burk plot) was “non-competitive inhibition”. The Ki at α-glucosidase [4] (read-out: Ki (inhibition constant)) was found to be 38.2 µM. The compound further registered an IC50 in data set [2] of 38.2 ± 0.3 µM.
In turn, `O=C(CSc1nc2ccccc2cc1-c1nc2ccccc2s1)Nc1ccccc1Cl` [Compound 8i, 2-((3-(benzo[d]thiazol-2-yl)quinolin-2-yl)thio)-N-(2-chlorophenyl)acetamide] came in with a melting point of 221 to 223 °C. The compound also displayed a Concentrations of precipitation in data set [1] greater than 90 µM. The compound also showed an IC50 in data set [2] of 118 ± 1.4 µM.
With `O=C(CSc1nc2ccccc2cc1-c1nc2ccccc2s1)Nc1cccc(Cl)c1` [Compound 8j, 2-((3-(benzo[d]thiazol-2-yl)quinolin-2-yl)thio)-N-(3-chlorophenyl)acetamide], the Concentrations of precipitation in data set [1] is greater than 90 µM. In data set [2], this compound displayed an IC50 of 111.7 ± 1.1 µM.
In data set [1], `O=C(CSc1nc2ccccc2cc1-c1nc2ccccc2s1)Nc1ccc(Cl)cc1` [Compound 8k, 2-((3-(benzo[d]thiazol-2-yl)quinolin-2-yl)thio)-N-(4-chlorophenyl)acetamide] registered a Concentrations of precipitation greater than 90 µM. The same compound registered an IC50 in data set [2] of 145 ± 1.5 µM.
The compound `O=C(CSc1nc2ccccc2cc1-c1nc2ccccc2s1)Nc1ccc(Br)cc1` [Compound 8l, 2-((3-(benzo[d]thiazol-2-yl)quinolin-2-yl)thio)-N-(4-bromophenyl)acetamide] gave a Concentrations of precipitation in data set [1] greater than 90 µM. In data set [2], the half-inhibitory concentration (IC50) stood at 182.7 ± 1 µM.
For the compound `O=C(CSc1nc2ccccc2cc1-c1nc2ccccc2s1)Nc1ccc([N+](=O)[O-])cc1` [Compound 8m, 2-((3-(benzo[d]thiazol-2-yl)quinolin-2-yl)thio)-N-(4-nitrophenyl)acetamide], the melting point was in the range of 209 to 211 °C. The same compound had a Concentrations of precipitation in data set [1] greater than 90 µM. The same compound returned an IC50 in data set [2] of 198.9 ± 1.5 µM.
The compound `O=C(CSc1nc2ccccc2cc1-c1nc2ccccc2s1)Nc1ncc([N+](=O)[O-])s1` [Compound 8o, 2-((3-(benzo[d]thiazol-2-yl)quinolin-2-yl)thio)-N-(5-nitrothiazol-2-yl)acetamide] had a melting point of 199 to 201 °C. The compound further yielded a Concentrations of precipitation in data set [1] greater than 90 µM. In data set [2], this compound gave a concentration for half-maximal inhibition (IC50) of 47.2 ± 0.6 µM.
Turning to `O=C(CSc1nc2ccccc2cc1-c1nc2ccccc2s1)Nc1cccc2ccccc12` [Compound 8p, 2-((3-(benzo[d]thiazol-2-yl)quinolin-2-yl)thio)-N-(naphthalen-1-yl)acetamide], the melting point fell in the range of 198 to 200 °C. This compound also displayed a Concentrations of precipitation in data set [1] greater than 90 µM. Moreover, the midpoint of inhibition in data set [2], the IC50, lay at 139.8 ± 1 µM.
In data set [1], `O=C(CSc1nc2ccccc2cc1-c1nc2ccccc2s1)NCc1ccccc1` [Compound 8q, 2-((3-(benzo[d]thiazol-2-yl)quinolin-2-yl)thio)-N-benzylacetamide] returned a Concentrations of precipitation greater than 90 µM. The IC50 in data set [2] is 255.6 ± 0.3 µM.
`Cc1ccc(CNC(=O)CSc2nc3ccccc3cc2-c2nc3ccccc3s2)cc1` [Compound 8r, 2-((3-(benzo[d]thiazol-2-yl)quinolin-2-yl)thio)-N-(4-methylbenzyl)acetamide] had a melting point of 182 to 184 °C. The Concentrations of precipitation in data set [1] was greater than 90 µM. In data set [2], it took 161.4 ± 0.4 µM to reach half-maximal inhibition (IC50).
As for `O=C(CSc1nc2ccccc2cc1-c1nc2ccccc2s1)NCc1ccc(F)cc1` [Compound 8s, 2-((3-(benzo[d]thiazol-2-yl)quinolin-2-yl)thio)-N-(4-fluorobenzyl)acetamide], the melting point was 213 to 215 °C. The same compound registered a Concentrations of precipitation in data set [1] greater than 90 µM. In data set [2], this compound returned an IC50 of 130.1 ± 0.7 µM. Also, in data set [2] (α-glucosidase, para-fluoro benzyl less active than para-fluoro phenyl), the “Less activity compared to phenyl one” value is “about threefold”.
With `O=C(CSc1nc2ccccc2cc1-c1nc2ccccc2s1)NCCc1ccccc1` [Compound 8t, 2-((3-(benzo[d]thiazol-2-yl)quinolin-2-yl)thio)-N-phenethylacetamide], the melting point was 225 to 227 °C. The compound further registered a Concentrations of precipitation in data set [1] greater than 90 µM. In data set [2], the IC50 worked out at 222.7 ± 0.9 µM.
Consider `Cc1cccc(C)c1NC(=O)CSc1nc2ccccc2cc1/C=N/NC(=O)c1ccccc1` [D], for which the IC50 at α-glucosidase [3] (Fig. 2, study of compound D with its acarbose standard) was 14 ± 0.6 µM.
As to `Oc1ccc(-c2nnc(-c3ccc(-c4nc5ccccc5s4)cc3)o2)cc1O` [E], on α-glucosidase [3] (Fig. 2, study of compound E with its acarbose standard), the IC50 is 0.5 ± 0.01 µM.
For the compound `O=C(N/N=C/c1ccc(Cl)cc1)c1ccc(-c2nc3ccccc3s2)cc1` [F], the 50% inhibitory concentration (IC50) on α-glucosidase [3] (Fig. 2, study of compound F with its acarbose standard) was 5.31 ± 0.03 µM.
